In patent US8658604B2, “Template-fixed beta-hairpin peptidomimetics with protease inhibitory activity” (Polyphor Ltd, priority 2005, dated 2014):
Where a SMILES comes first, the peptide text is derived from it.

Key:
HELA cells (Acc57) = assay: Cytotoxicity assay (MTT reduction), HELA cells; type: cell-based; conditions: Hela cells
Description: The cytotoxicity of the peptides to HELA cells (Acc57) and COS-7 cells (CRL-1651) was determined using the MTT reduction assay [see ref. 2 and 3, below]. Briefly the method was as follows: HELA cells and COS-7 cells were seeded at 7.0×10^3 and, respectively, 4.5×10^3 cells per well and grown in 96-well microtiter plates for 24 hours at 37° C. at 5% CO2. At this point, time zero (Tz) was determined by MTT reduction (see below). The supernatant of the remaining wells was discarded, and fresh medium and the peptides in serial dilutions of 12.5, 25 and 50 μM were pipetted into the wells. Each peptide concentration was assayed in triplicate. Incubation of the cells was continued for 48 hours at 37° C. at 5% CO2. Wells were then washed once with phosphate buffered saline (PBS) and subsequently 100 μl MTT reagent (0.5 mg/ml in medium RPMI1640 and, respectively, DMEM) were added to the wells. This was incubated at 37° C. for 2 hours and subsequently the medium was aspirated and 100 μl isopropanol were added to each well. The absorbance at 595 nm of the solubilized product was measured (OD595peptide). For each concentration averages were calculated from triplicates. The percentage of growth was calculated as follows: (OD595peptide-OD595Tz-OD595Empty well)/(OD595Tz-OD595Empty well)×100% and was plotted for each peptide concentration.
The LC 50 values (Lethal Concentration, defined as the concentration that kills 50% of the cells) were determined for each peptide by using the trend line function of EXCEL (Microsoft Office 2000) for the concentrations (50, 25, 12.5 and 0 μM), the corresponding growth percentages and the value −50, (=TREND(C50:C0,%50:%0,−50)).
The GI 50 (Growth Inhibition) concentrations were calculated for each peptide by using a trend line function for the concentrations (50, 25, 12.5 and 0 μg/ml), the corresponding percentages and the value 50, (=TREND (C50:C0,%50:%0,50).

[1] = target: Trypsin, from human pancreas (Homo sapiens, UniProt P07477); assay: Enzymatic assay, trypsin; conditions: at 100 μM
Chymase, from human skin = target: T1, Chymase, from human skin (Homo sapiens, UniProt P23946); assay: Enzymatic assay, chymase
T1 sequence (P23946 22-247): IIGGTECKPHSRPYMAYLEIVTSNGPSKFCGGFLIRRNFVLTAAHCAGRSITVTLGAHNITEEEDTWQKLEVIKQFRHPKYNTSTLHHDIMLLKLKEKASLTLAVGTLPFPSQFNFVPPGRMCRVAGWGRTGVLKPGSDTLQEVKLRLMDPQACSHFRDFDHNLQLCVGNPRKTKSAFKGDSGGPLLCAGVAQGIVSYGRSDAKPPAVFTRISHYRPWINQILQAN

[2] = target: T2, Elastase from human neutrophils (Homo sapiens, UniProt P08246); assay: Enzymatic assay, elastase; conditions: Elastase IC50
T2 sequence (P08246 30-267): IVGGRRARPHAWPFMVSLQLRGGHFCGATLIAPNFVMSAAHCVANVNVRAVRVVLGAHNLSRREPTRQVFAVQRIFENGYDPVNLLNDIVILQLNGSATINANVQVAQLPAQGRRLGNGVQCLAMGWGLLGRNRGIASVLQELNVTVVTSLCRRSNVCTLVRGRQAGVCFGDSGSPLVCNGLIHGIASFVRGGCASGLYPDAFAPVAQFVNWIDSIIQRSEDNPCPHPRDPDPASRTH

[3] = target: Thrombin, from Human Plasma (Homo sapiens, UniProt P00734); assay: Enzymatic assay, thrombin
[4] = tested on: Tryptase, from human lung; assay: Enzymatic assay, tryptase; conditions: at 100 μM
[5] = target: Urokinase from human urine (Homo sapiens, UniProt P00749); assay: Enzymatic assay, urokinase
[6] = target: T3, CathepsinG, from human neutrophils (Homo sapiens, UniProt P08311); assay: Enzymatic assay, cathepsin G; conditions: for IC50: Cathepsin G IC50
T3 sequence (P08311 21-244): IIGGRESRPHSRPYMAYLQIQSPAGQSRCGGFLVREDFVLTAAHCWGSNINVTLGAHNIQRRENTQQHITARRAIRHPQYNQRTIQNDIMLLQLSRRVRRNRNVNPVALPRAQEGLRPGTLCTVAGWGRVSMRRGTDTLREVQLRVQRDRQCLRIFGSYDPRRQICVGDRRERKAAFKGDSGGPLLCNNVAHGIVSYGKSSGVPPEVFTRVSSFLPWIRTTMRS

[7] = target: Chymotrypsin, from human pancreas (Homo sapiens, UniProt P17538); assay: Enzymatic assay, chymotrypsin
[8] = target: Coagulation Factor Xa, from uman plasma (Homo sapiens, UniProt P00742); assay: Enzymatic assay, coagulation factor Xa
Coagulation Factor Xa, from uman plasma, sequence (P00742 235-488 limits assumed): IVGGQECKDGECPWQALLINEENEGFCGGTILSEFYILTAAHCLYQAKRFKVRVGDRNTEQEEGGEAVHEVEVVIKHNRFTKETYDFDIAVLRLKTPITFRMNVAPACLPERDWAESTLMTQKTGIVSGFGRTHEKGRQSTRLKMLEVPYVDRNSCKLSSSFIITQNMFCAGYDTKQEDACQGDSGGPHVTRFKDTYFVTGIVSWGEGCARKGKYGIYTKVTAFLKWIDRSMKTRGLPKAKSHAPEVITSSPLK
Coagulation Factor Xa, from uman plasma, sequence (P00742 41-179 limits assumed): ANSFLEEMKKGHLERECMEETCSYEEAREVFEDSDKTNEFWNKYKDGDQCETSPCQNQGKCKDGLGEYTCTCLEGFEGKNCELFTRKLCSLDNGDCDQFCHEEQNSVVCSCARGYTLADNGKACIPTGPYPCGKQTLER

Chymotrypsin, from human pancreas, sequence (P17538 19-263): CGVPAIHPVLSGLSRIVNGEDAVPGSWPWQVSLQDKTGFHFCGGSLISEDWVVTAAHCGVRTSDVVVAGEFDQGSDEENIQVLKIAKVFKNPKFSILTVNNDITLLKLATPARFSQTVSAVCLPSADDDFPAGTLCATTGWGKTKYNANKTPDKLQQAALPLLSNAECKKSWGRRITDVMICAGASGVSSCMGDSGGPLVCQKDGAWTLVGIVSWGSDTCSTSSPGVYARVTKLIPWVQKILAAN

Structure (SMILES)	Cytotoxicity LC50/GI50 Hela cells (HELA cells (Acc57)) [µM]	Trypsin at 100 μM % [1] [%]	Chymase at 100 μM % (Chymase, from human skin) [%]	IC50 [2] [µM]	Thrombin at 100 μM % [3] [%]	Tryptase at 100 μM % [4] [%]	Urokinase at 100 μM % [5] [%]	IC50 [6] [µM]	IC50 [7] [µM]	FXa at 100 μM % [8] [%]	Cathepsin G at 100 μM % ([6]; at 100 μM (stated in cell instead of IC50)) [at 100%]	Tryptase At 100 μM % [4] [%]	Cathepsin G at 100 μM % ([6]; at 100 μM) [at 100%]	Chymotrypsin at 100 μM % ([7]; at 100 μM) [%]
CCCC[C@@H]1NC(=O)[C@@H]2CCCN2C(=O)[C@H]2CCCN2C(=O)[C@H](Cc2ccc(O)cc2)NC(=O)[C@@H]2CSSC[C@H](NC1=O)C(=O)N[C@@H]([C@@H](C)O)C(=O)N[C@@H](C)C(=O)N[C@@H](CO)C(=O)N[C@@H]([C@@H](C)CC)C(=O)N1CCC[C@H]1C(=O)N1CC(NC(=O)c3ccccc3)C[C@H]1C(=O)N[C@@H](CCC(N)=O)C(=O)N2 (single isomer, unassigned) [Ex. 88]	73	6.4	0	0.018	0.2	0.6	96	> 100	4.31	3				
CCCC[C@@H]1NC(=O)[C@@H]2CCCN2C(=O)[C@H]2CCCN2C(=O)[C@H](Cc2ccc(O)cc2)NC(=O)[C@@H]2CSSC[C@H](NC1=O)C(=O)N[C@@H]([C@@H](C)O)C(=O)N[C@@H](C)C(=O)N[C@@H](CO)C(=O)N[C@@H](C1CCCCC1)C(=O)N1CCC[C@H]1C(=O)N1CCC[C@H]1C(=O)N[C@@H](CCC(N)=O)C(=O)N2 [Ex. 84] (HELM PEPTIDE1{[Nle].C.T.A.S.[O=C([C@@H](N[*:1])C1CCCCC1)[*:2]].P.P.Q.C.Y.[dP].P}$PEPTIDE1,PEPTIDE1,2:R3-10:R3|PEPTIDE1,PEPTIDE1,1:R1-13:R2$$$V2.0)	9	10.8	0	0.018	20.6	4.2	10.4	20.2	17.1	13.3				
CCCC[C@@H]1NC(=O)[C@@H]2CCCN2C(=O)[C@H]2CCCN2C(=O)[C@H](Cc2ccccc2)NC(=O)[C@@H]2CSSC[C@H](NC1=O)C(=O)N[C@@H]([C@@H](C)O)C(=O)N[C@@H](C)C(=O)N[C@@H](CO)C(=O)N[C@@H]([C@@H](C)CC)C(=O)N1CCC[C@H]1C(=O)N1CCC[C@H]1C(=O)N[C@@H](CCC(N)=O)C(=O)N2 [Ex. 90] (HELM PEPTIDE1{[Nle].C.T.A.S.I.P.P.Q.C.F.[dP].P}$PEPTIDE1,PEPTIDE1,2:R3-10:R3|PEPTIDE1,PEPTIDE1,1:R1-13:R2$$$V2.0)	96	5.2	0	0.021	0	5	3.5	67	33.1	5.5				
CCCC[C@@H]1NC(=O)[C@@H]2CCCN2C(=O)[C@H]2CCCN2C(=O)[C@H](CCC(N)=O)NC(=O)[C@@H]2CSSC[C@H](NC1=O)C(=O)N[C@@H]([C@@H](C)O)C(=O)N[C@@H](C)C(=O)N[C@@H](CO)C(=O)N[C@@H]([C@@H](C)CC)C(=O)N1CCC[C@H]1C(=O)N1CCC[C@H]1C(=O)N[C@@H](CCC(N)=O)C(=O)N2 [Ex. 91] (HELM PEPTIDE1{[Nle].C.T.A.S.I.P.P.Q.C.Q.[dP].P}$PEPTIDE1,PEPTIDE1,2:R3-10:R3|PEPTIDE1,PEPTIDE1,1:R1-13:R2$$$V2.0)	79	0	4.7	0.028	13.5				48.1	19.4	45			
CCCC[C@@H]1NC(=O)[C@@H]2CCCN2C(=O)[C@H]2CCCN2C(=O)[C@H](Cc2ccc3ccccc3c2)NC(=O)[C@@H]2CSSC[C@H](NC1=O)C(=O)N[C@@H]([C@@H](C)O)C(=O)N[C@@H](C)C(=O)N[C@@H](CO)C(=O)N[C@@H]([C@@H](C)CC)C(=O)N1CCC[C@H]1C(=O)N1CCC[C@H]1C(=O)N[C@@H](CCC(N)=O)C(=O)N2 [Ex. 95] (HELM PEPTIDE1{[Nle].C.T.A.S.I.P.P.Q.C.[O=C([C@H](Cc1ccc2ccccc2c1)N[*:1])[*:2]].[dP].P}$PEPTIDE1,PEPTIDE1,2:R3-10:R3|PEPTIDE1,PEPTIDE1,1:R1-13:R2$$$V2.0)	89	8.9	0	0.024	0	0	10.3	38.7	33.7	11.3				
CCCC[C@@H]1NC(=O)[C@H](C(C)C)NC(=O)[C@H]2CCCN2C(=O)[C@H](Cc2ccc(O)cc2)NC(=O)[C@@H]2CSSC[C@H](NC1=O)C(=O)N[C@@H]([C@@H](C)O)C(=O)N[C@@H](C)C(=O)N[C@@H](CO)C(=O)N[C@@H]([C@@H](C)CC)C(=O)N1CCC[C@H]1C(=O)N1CCC[C@H]1C(=O)N[C@@H](CCC(N)=O)C(=O)N2 [Ex. 125] (HELM PEPTIDE1{[Nle].C.T.A.S.I.P.P.Q.C.Y.[dP].V}$PEPTIDE1,PEPTIDE1,2:R3-10:R3|PEPTIDE1,PEPTIDE1,1:R1-13:R2$$$V2.0)	37	28.3	4.8	0.015	0			18.3	> 20	0				
CCCC[C@@H]1NC(=O)[C@@H]2CCCN2C(=O)[C@H]2CCCN2C(=O)[C@H](Cc2ccc(O)cc2)NC(=O)[C@@H]2CSSC[C@H](NC1=O)C(=O)N[C@@H]([C@@H](C)O)C(=O)N[C@@H](C)C(=O)N[C@@H](CO)C(=O)N[C@@H](CC1CCCCC1)C(=O)N1CCC[C@H]1C(=O)N1CCC[C@H]1C(=O)N[C@@H](CCC(N)=O)C(=O)N2 [Ex. 141] (HELM PEPTIDE1{[Nle].C.T.A.S.[Cha].P.P.Q.C.Y.[dP].P}$PEPTIDE1,PEPTIDE1,2:R3-10:R3|PEPTIDE1,PEPTIDE1,1:R1-13:R2$$$V2.0)	56	0	0		0					15.3		44.5	63.4	72.9
